# Laboratory results from patent US20260274833A1 (NiKang Therapeutics, Inc., priority 2022, published 2026).
# Target: T1, CDK2 (Homo sapiens, UniProt P24941)
# T1 construct: endogenous in cells; host or cells: OVCAR3 cells
# Test: Phospho-RB measurement in OVCAR3 cells (HTRF phospho-RB cellular kit)
# Assay type: cell-based
# Details: inhibition of RB phosphorylation at S807/811 (HTRF, TR-FRET ratio 665/620), 24 h compound treatment, 0.3 to 10,000 nM
# Summary of the method: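 IC50 came from a four-parameter logistic fit of the DMSO-normalized TR-FRET ratio (665/620 nm). That ratio reflects RB phosphorylation at S807/811, read with an HTRF antibody pair 4 h after adding lysate at room temperature.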
row,Structure (SMILES),IC50
1,"CN1CCN(S(=O)(=O)N2CCC(Nc3nccc(-c4sc(C(C)(C)C)nc4-c4cccc(NS(=O)(=O)N(C)C5CCC5)c4F)n3)CC2)CC1 [Example 111, N-(3-(2-(tert-butyl)-5-(2-((1-((4-methylpiperazin-1-yl)sulfonyl)piperidin-4-yl)amino)pyrimidin-4-yl)thiazol-4-yl)-2-fluorophenyl)-(N-methyl-N-cyclobutylamine)-sulfonamide]",908 nM
2,"CN1CCN(S(=O)(=O)N2CCC(Nc3nccc(-c4sc(C(C)(C)C)nc4-c4cccc(NS(=O)(=O)N(C)C5CC5)c4F)n3)CC2)CC1 [Example 112, N-(3-(2-(tert-butyl)-5-(2-((1-((4-methylpiperazin-1-yl)sulfonyl)piperidin-4-yl)amino)pyrimidin-4-yl)thiazol-4-yl)-2-fluorophenyl)-(N-methyl-N-cyclopropylamine)-sulfonamide]",1210 nM
3,"CC(C)(C)c1nc(-c2cccc(NS(=O)(=O)N3Cc4ccccc4C3)c2F)c(-c2ccnc(NC3CCN(S(=O)(=O)N4CCNCC4)CC3)n2)s1 [Example 113, N-(3-(2-(tert-butyl)-5-(2-((1-(piperazin-1-ylsulfonyl)piperidin-4-yl)amino)-pyrimidin-4-yl)thiazol-4-yl)-2-fluoro-phenyl)isoindoline-2-sulfonamide]",120 nM
4,"CC(C)(C)c1nc(-c2cccc(NS(=O)(=O)N3CCc4ccccc4C3)c2F)c(-c2ccnc(NC3CCN(S(=O)(=O)N4CCNCC4)CC3)n2)s1 [Example 114, N-(3-(2-(tert-butyl)-5-(2-((1-(piperazin-1-ylsulfonyl)piperidin-4-yl)amino)-pyrimidin-4-yl)thiazol-4-yl)-2-fluoro-phenyl)-3,4-dihydro-isoquinoline-2(1H)-sulfonamide]",276 nM
5,"CC(C)(C)c1nc(-c2cccc(NS(=O)(=O)N3CCOc4ccccc4C3)c2F)c(-c2ccnc(NC3CCN(S(=O)(=O)N4CCNCC4)CC3)n2)s1 [Example 115, N-(3-(2-(tert-butyl)-5-(2-((1-(piperazin-1-ylsulfonyl)piperidin-4-yl)amino)-pyrimidin-4-yl)thiazol-4-yl)-2-fluorophenyl)-2,3-dihydrobenzo [f][1,4]-oxazepine-4(5H)-sulfonamide]",636 nM
6,"CC(C)(C)c1nc(-c2cccc(NS(=O)(=O)N3CCNc4ccccc4C3)c2F)c(-c2ccnc(NC3CCN(S(=O)(=O)N4CCNCC4)CC3)n2)s1 [Example 116, N-(3-(2-(tert-butyl)-S-(2-((1-(piperazin-1-ylsulfonyl)piperidin-4-yl)amino)-pyrimidin-4-yl)thiazol-4-yl)-2-fluorophenyl)-1,2,3,5-tetrahydro-4H-benzo[e][1,4] diazepine-4-sulfonamide]",390 nM
7,"CC(C)(C)c1nc(-c2cccc(NS(=O)(=O)N3CCc4ccc(C#N)cc43)c2F)c(-c2ccnc(NC3CCN(S(C)(=O)=O)CC3)n2)s1 [Example 118, N-(3-(2-(tert-butyl)-5-(2-((1-(methylsulfonyl)-piperidin-4-yl)amino)-pyrimidin-4-yl)thiazol-4-yl)-2-fluorophenyl)-6-cyanoindoline-1-sulfonamide]",66.9 nM
8,"COc1ccc2c(c1)CN(S(=O)(=O)Nc1cccc(-c3nc(C(C)(C)C)sc3-c3ccnc(NC4CCN(S(=O)(=O)N5CCNCC5)CC4)n3)c1F)C2 [Example 119, N-(3-(2-(tert-butyl)-5-(2-((1-(piperazin-1-ylsulfonyl)piperidin-4-yl)amino)-pyrimidin-4-yl)thiazol-4-yl)-2-fluoro-phenyl)-5-methoxy-isoindoline-2-sulfonamide]",397 nM
9,"CC(C)(C)c1nc(-c2cccc(NS(=O)(=O)N3CCc4ccc(C#N)cc43)c2F)c(-c2ccnc(NC3CCN(S(=O)(=O)N4CCNCC4)CC3)n2)s1 [Example 120, N-(3-(2-(tert-butyl)-5-(2-((1-(piperazin-1-ylsulfonyl)piperidin-4-yl)amino)-pyrimidin-4-yl)thiazol-4-yl)-2-fluorophenyl)-6-cyanoindoline-1-sulfonamide]",86.9 nM
10,"CN(C)CCN(C)S(=O)(=O)N1CCC(Nc2nccc(-c3sc(C(C)(C)C)nc3-c3cccc(NS(=O)(=O)N4Cc5cccnc5C4)c3F)n2)CC1 [Example 121, N-(3-(2-(tert-butyl)-5-(2-((1~(N-(2-(dimethylamino)ethyl)-N-methylsulfamoyl)-piperidin-4-yl)amino)-pyrimidin-4-yl)thiazol-4-yl)-2-fluoro-phenyl)-5,7-dihydro-6H-pyrrolo[3,4-b]-pyridine-6-sulfonamide]",265 nM
11,"CN(C)CCN(C)S(=O)(=O)N1CCC(Nc2nccc(-c3sc(C(C)(C)C)nc3-c3cccc(NS(=O)(=O)N4CCc5ccc(C#N)cc54)c3F)n2)CC1 [Example 122, N-(3-(2-(tert-butyl)-5-(2-((1-(N-(2-(dimethylamino)ethyl)-N-methylsulfamoyl)-piperidin-4-yl)amino)-pyrimidin-4-yl)thiazol-4-yl)-2-fluoro-phenyl)-6-cyanoindoline-1-sulfonamide]",54 nM
12,"CN(C)CCN(C)S(=O)(=O)N1CCC(Nc2nccc(-c3sc(C(C)(C)C)nc3-c3cccc(NS(=O)(=O)N4CCc5c(C#N)cccc54)c3F)n2)CC1 [Example 123, N-(3-(2-(tert-butyl)-5-(2-((1-(N-(2-(dimethylamino)ethyl)-N-methylsulfamoyl)-piperidin-4-yl)amino)-pyrimidin-4-yl)thiazol-4-yl)-2-fluoro-phenyl)-4-cyanoindoline-1-sulfonamide]",75.2 nM
13,"CC(C)(C)c1nc(-c2cccc(NS(=O)(=O)N3CCc4c(C#N)cccc43)c2F)c(-c2ccnc(NC3CCN(S(=O)(=O)N4CCNCC4)CC3)n2)s1 [Example 124, N-(3-(2-(tert-butyl)-5-(2-((1-(piperazin-1-ylsulfonyl)piperidin-4-yl)amino)-pyrimidin-4-yl)thiazol-4-yl)-2-fluoro-phenyl)-4-cyanoindoline-1-sulfonamide]",151 nM
14,"CN1CCN(S(=O)(=O)N2CCC(Nc3nccc(-c4sc(C(C)(C)C)nc4-c4cccc(NS(=O)(=O)N5CCc6c(C#N)cccc65)c4F)n3)CC2)CC1 [Example 125, N-(3-(2-(tert-butyl)-5-(2-((1-((4-methyl-piperazin-1-yl)sulfonyl)piperidin-4-yl)amino)-pyrimidin-4-yl)thiazol-4-yl)-2-fluorophenyl)-4-cyanoindoline-1-sulfonamide]",204 nM
15,"CC(C)(C)c1nc(-c2cccc(NS(=O)(=O)N3Cc4ccncc4C3)c2F)c(-c2ccnc(NC3CCN(S(=O)(=O)N4CCNCC4)CC3)n2)s1 [Example 126, N-(3-(2-(tert-butyl)-5-(2-((1-(piperazin-1-ylsulfonyl)piperidin-4-yl)amino)-pyrimidin-4-yl)thiazol-4-yl)-2-fluorophenyl)-1,3-dihydro-2H-pyrrolo[3,4-c] pyridine-2-sulfonamide]",366 nM
16,"CN1CCN(S(=O)(=O)N2CCC(Nc3nccc(-c4sc(C(C)(C)C)nc4-c4cccc(NS(=O)(=O)N5Cc6cccnc6C5)c4F)n3)CC2)CC1 [Example 127, N-(3-(2-(tert-butyl)-5-(2-((1-((4-methyl-piperazin-1-yl)sulfonyl)piperidin-4-yl)amino)-pyrimidin-4-yl)thiazol-4-yl)-2-fluorophenyl)-5,7-dihydro-6H-pyrrolo[3,4-b] pyridine-6-sulfonamide]",208 nM
17,"CN1CCN(S(=O)(=O)N2CCC(Nc3nccc(-c4sc(C(C)(C)C)nc4-c4cccc(NS(=O)(=O)N5Cc6ccncc6C5)c4F)n3)CC2)CC1 [Example 128, N-(3-(2-(tert-butyl)-5-(2-((1-((4-methylpiperazin-1-yl)sulfonyl)piperidin-4.yl)-amino)pyrimidin~4-yl)thiazol-4-yl)-2-fluorophenyl)-1,3-dihydro-2H-pyrrolo[3,4-c]-pyridine-2-sulfonamide]",162 nM
18,"CC(C)(C)c1nc(-c2cccc(NS(=O)(=O)N3CCNc4ccccc43)c2F)c(-c2ccnc(NC3CCN(S(=O)(=O)N4CCNCC4)CC3)n2)s1 [Example 129, N-(3-(2-(tert-butyl)-5-(2-((1-(piperazin-1-ylsulfonyl)piperidin-4-yl)amino)-pyrimidin-4-yl)thiazol-4-yl)-2-fluoro-phenyl)-3,4-dihydroquinoxaline-1(2H)-sulfonamide]",328 nM
19,"C[C@@H]1c2ccccc2CN1S(=O)(=O)Nc1cccc(-c2nc(C(C)(C)C)sc2-c2ccnc(NC3CCN(S(C)(=O)=O)CC3)n2)c1F [Example 130, (R)-N-(3-(2-(tert-butyl)-5-(2-((1-(methyl-sulfonyl)piperidin-4-yl)amino)-pyrimidin-4-yl)thiazol-4-yl)-2-fluoro-phenyl)-1-methyliso-indoline-2-sulfonamide]",268 nM
20,"C[C@H]1c2ccccc2CN1S(=O)(=O)Nc1cccc(-c2nc(C(C)(C)C)sc2-c2ccnc(NC3CCN(S(C)(=O)=O)CC3)n2)c1F [Example 131, (S)-N-(3-(2-(tert-butyl)-5-(2-((1-(methyl-sulfonyl)piperidin-4-yl)amino)pyrimidin-4-yl)thiazol-4-yl)-2-fluoro-phenyl)-1-methyliso-indoline-2-sulfonamide]",160 nM
21,"CC(C)(C)c1nc(-c2cccc(NS(=O)(=O)N3Cc4cccnc4C3)c2F)c(-c2ccnc(NC3CCN(S(=O)(=O)N4CCNCC4)CC3)n2)s1 [Example 132, N-(3-(2-(tert-butyl)-5-(2-((1-(piperazin-1-ylsulfonyl)piperidin-4-yl)amino)-pyrimidin-4-yl)thiazol-4-yl)-2-fluoro-phenyl)-5,7-dihydro-6H-pyrrolo[3,4-b]-pyridine-6-sulfonamide]",310 nM
22,"CN(C)Cc1cccc2c1CCN2S(=O)(=O)Nc1cccc(-c2nc(C(C)(C)C)sc2-c2ccnc(NC3CCN(S(C)(=O)=O)CC3)n2)c1F [Example 133, N-(3-(2-(tert-butyl)-5-(2-((1-(methylsulfonyl)-piperidin-4-yl)amino)-pyrimidin-4-yl)thiazol-4-yl)-2-fluoro-phenyl)-4-((dimethylamino)methyl)-indoline-1-sulfonamide]",331 nM
